Data from patent US20200369674A1, “ANTI-PAIN COMPOUND AND PREPARATION METHOD THEREOF” (LUNAN PHARMACEUTICAL GROUP CORPORATION, priority 2017, published 2020).

Key:
Assay type in all cases: in vivo
ICR mice [1] = experiment: Acetic acid writhing test; set-up: key to Inhibition rate (%): Symbol “—” indicates that the data obtained at this dose was not significantly different from the vehicle control group; settings: 1 mg/kg intragastric, 0.6% acetic acid ip two hours after administration
Procedure: ICR mice, 18-22 g, half of them being male and the other half being female, provided by the Department of Laboratory Animals, Peking University (License No.: SCXK (Beijing) 2016-0010).
ICR mice, half of them being male and the other half being female, were randomly grouped, 8 mice per group. Vehicle control group (double-distilled water), ibuprofen control group, and groups for samples to be tested (the compounds and doses thereof were shown in Table 2) were set. All drugs were dissolved in double-distilled water before administration, and given by intragastric administration at predetermined doses. Two hours after the administration, the mice were intraperitoneally injected with 0.6% acetic acid solution (10 ml/kg, ip), and the number of times the mice writhed (abdomen depressed, buttock raised, body elongated) was recorded within 5-20 minutes. The inhibition rate % of compound on writhing pain in mice was calculated according to the following formula.
Inhibition rate %=(number of writhing times in vehicle control group−number of writhing times in test group)/number of writhing times in vehicle control group×100

ICR mice [2] = experiment: Xylene-induced ear swelling test in mice (Effect Example 6); settings: 1 mg/kg i.g., 30 μL xylene one hour after administration; for Swelling degree: mean±SD
Procedure: (§1) ICR mice, body weight 18 g-22 g, half of them being male and the other half being female, provided by the Department of Laboratory Animals, Peking University. The animals were raised in a standard environment: temperature 23±1° C., relative humidity 55±5%, light-dark cycle 12 h/12 h, and fed with standard pellet feed.
Mice were randomly divided into 5 groups, 8 mice per group, half of them being male and the other half being female. Vehicle control group (double-distilled water, i.g.), dexamethasone control group (2 mg/kg, i.g.), compound DXL-A-22 group (1 mg/kg, i.g.), and compound DXL-A-24 group (1 mg/kg, i.g.) were set. All drugs were dissolved in double-distilled water before administration, and given by intragastric administration at 0.1 mL/10 g. One hour after administration, 30 μL of xylene was evenly smeared on the inner and outer sides of right ear of mouse to cause inflammation. After 0.5 hour, the left and right ears of mouse were cut, and circular ear pieces of the same size were punched at the same position on the left and right ears using the punch (diameter 6 mm) respectively, and weighed for the weights of the left and right ear pieces. The difference between the weight of the right ear after applying xylene and the weight of the left ear without applying xylene was used as swelling degree index (i.e., swelling degree). The swelling degree was calculated according to formula (1). The intensity of anti-inflammatory effect was expressed as inhibition rate (%), and the inhibition rate (%) was calculated according to formula (2).
Swelling degree=weight of right ear piece−weight of left ear piece (1)
Inflammation inhibition rate (%)=(ear swelling degree in vehicle control group−ear swelling degree in drug group)/ear swelling degree in vehicle control group×100% (2)

ICR mice [3] = experiment: Carrageenan-induced paw swelling in mice; settings: 1 mg/kg i.g.; for 0.5 h inhibition rate (%) / 0.5 h swelling degree (μL): 0.5 h after carrageenan injection; for 0.5 h swelling degree (μL) / 1 h swelling degree (μL) / 2 h swelling degree (μL): mean±SD; for 1 h inhibition rate (%) / 1 h swelling degree (μL): 1 h after carrageenan injection; for 2 h inhibition rate (%) / 2 h swelling degree (μL): 2 h after carrageenan injection
Procedure: as §1
The mouse was fixed in a special holder, and both hind feet were exposed. Before the test, a line was drawn at 0.5 cm below the ankle joint of mouse with a marker, and used as a mark for measuring plantar volume. 30 minutes before administration the volume of right hind foot was measured as basic threshold. The mice were randomly divided into 5 groups, 8 mice per group, half of them being male and the other half being female. Vehicle control group (double-distilled water, i.g.), dexamethasone control group (0.5 mg/kg, i.g.), compound DXL-A-22 group (1 mg/kg, i.g.), and DXL-A-24 group (1 mg/kg, i.g.) were set. All drugs were dissolved in double-distilled water before administration, and were administered at 0.1 mL/10 g. Immediately after intragastric administration, 20 μL of 5% carrageenan saline solution was injected subcutaneously in the right hind foot of the mice, and the plantar volumes were measured at time points of 0.5 h, 1 h and 2 h after injection. The difference between the plantar volume of right foot after injection of carrageenan and the plantar volume of right foot before injection was used as swelling degree index (i.e., swelling degree). The swelling degree was calculated according to formula (3). The intensity of anti-inflammatory effect was expressed as inhibition rate (%), and the inhibition rate (%) was calculated according to formula (4).
Swelling degree=plantar volume of right foot after injection−plantar volume of right foot before injection (3)
Inflammation inhibition rate (%)=(plantar swelling degree in vehicle control group−plantar swelling degree in drug administration group)/plantar swelling degree in vehicle control group×100% (4)

| Compound | Inhibition rate (%) (ICR mice [1]) | Inhibition rate (%) (ICR mice [2]) | Swelling degree (ICR mice [2]) [mg] | 0.5 h inhibition rate (%) (ICR mice [3]) | 0.5 h swelling degree (μL) (ICR mice [3]) | 1 h inhibition rate (%) (ICR mice [3]) | 1 h swelling degree (μL) (ICR mice [3]) | 2 h inhibition rate (%) (ICR mice [3]) | 2 h swelling degree (μL) (ICR mice [3]) |
| --- | --- | --- | --- | --- | --- | --- | --- | --- | --- |
| Br.Brc1ccc(N2CC[N+]3(CCCC3)CC2)cc1 [DXL-A-22, 8-(4-bromophenyl)-5,8-diazaspiro[4.5]decan-5-ium bromide] | — | 42.62 | 5.48 ± 0.16 | 50.07 | 42.63 ± 16.98**/ μL | 55.56 | 38.50 ± 11.40**/ μL | 65.36 | 38.63 ± 11.67**/ μL |
| FC(F)(F)c1ccc(N2CC[N+]3(CCCC3)CC2)cc1.[Br-] [DXL-A-24, 8-(4-(trifluoromethyl)phenyl)-5,8-diazaspiro[4.5]decan-5-ium bromide] | — | 51.41 | 4.64 ± 0.11 | 52.27 | 40.75 ± 13.34**/ μL | 57.72 | 36.63 ± 16.12**/ μL | 67.49 | 36.25 ± 9.60**/ μL |
